Measurements as given in article PMC4920105, “Identification and Development of 2,3-Dihydropyrrolo[1,2-a]quinazolin-5(1H)-one Inhibitors Targeting Bromodomains within the Switch/Sucrose Nonfermenting Complex” (Journal of Medicinal Chemistry, 2016).
Several values for one entry are separate records, joined by “and”; a condition that tells them apart may be missing. Equal values may be shown once.

Experiments:
[1] = target: T1, PB1(5) (Homo sapiens, UniProt Q86U86); experiment: Isothermal calorimetry (ITC), PB1(5) bromodomain; format: binding; conditions: for K × 10^6 (M^–1): 293.15 K
T1 construct: the fifth bromodomain of PB1 (PB1(5)); made in house

[2] = target: SMARCA4 (Homo sapiens, UniProt P51532); experiment: Isothermal calorimetry (ITC), SMARCA4; format: binding
[3] = target: T1, PB1(5); experiment: DSF Tm shift assay, PB1(5) bromodomain; format: binding; conditions: for PB1(5) ΔTm / ΔTm at 10 µM: 10 μM inhibitor, average of three replicates; for PB1(5) Tm (Supplementary Table 2): average of three replicates and standard deviation
[4] = target: T2, BRD4(1) (Homo sapiens, UniProt O60885); experiment: DSF Tm shift assay, BRD4(1); format: binding; conditions: 10 μM, single measurement
T2 construct: representative bromodomains (PCAF, BRD4(1), CREBBP, TRIM33B) from other subfamilies using DSF; made in house
Description: (§1) Protein Expression and Purification.
(§2) Proteins were cloned, expressed, and purified as previously described.1 […]
(§3) Bromodomain DSF Tm assays were performed using a Mx3005p real-time PCR machine (Agilent) and low profile 96-well PCR plates (AB-0700, Life Technologies). Protein was buffered in 10 mM HEPES, pH 7.5, 500 mM NaCl and assayed at a concentration of 2 µM with 10 µM inhibitor concentration and 1:1000 SyproOrange (Invitrogen). Excitation and emission filters were set to 465 and 590 nm respectively. The temperature was raised by 3 °C per 1 min from 25–95 °C, and fluorescence readers were taken at each interval. Data analysis was carried out as described previously.2
(§4) AlphaScreen Displacement Assay.
(§5) AlphaScreen assays were based on a reported protocol, with minor variations.3 In place of a biotinylated peptide, a biotinylated ligand was used at 25 nM final concentration.
(§6) Isothermal Calorimetry Experiments.
(§7) Calorimetric experiments were performed on a VP-ITC micro-calorimeter (MicroCalTM, LLC Northampton, MA). Protein solutions were buffer exchanged by dialysis into buffer 20 mM Hepes pH 7.5, 150 mM NaCl, and 0.5 mM TCEP. All measurements were carried out at 293.15 K while stirring at 286 rpm. The micro syringe was loaded with protein solutions ranging from […]

[5] = target: T3, CREBBP (Homo sapiens, UniProt Q92793); experiment: DSF Tm shift assay, CREBBP; format: binding; conditions: 10 μM, single measurement
T3 construct: representative bromodomains (PCAF, BRD4(1), CREBBP, TRIM33B) from other subfamilies using DSF; made in house
Description: as §1, §2, §3, §4, §5, §6, §7

[6] = target: T4, TRIM33B (Homo sapiens, UniProt Q9UPN9); experiment: DSF Tm shift assay, TRIM33B; format: binding; conditions: 10 μM, single measurement
T4 construct: representative bromodomains (PCAF, BRD4(1), CREBBP, TRIM33B) from other subfamilies using DSF; made in house
T4 sequence (Q9UPN9 957-1063 isoform Q9UPN9-2 limits assumed): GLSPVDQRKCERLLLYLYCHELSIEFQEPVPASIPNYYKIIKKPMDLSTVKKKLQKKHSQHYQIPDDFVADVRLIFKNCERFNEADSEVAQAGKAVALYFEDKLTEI
Description: as §1, §2, §3, §4, §5, §6, §7

[7] = Solubility (qualitative); format: physicochemical; conditions: for DMSO and aqueous solubility: chlorinated derivatives
[8] = target: T5, BRD9A (Homo sapiens, UniProt Q9H8M2); experiment: DSF Tm shift assay, BRD9A; format: binding; conditions: single measurement
T5 construct: Bromodomain DSF Tm assays were performed; made in house
T5 sequence (Q9H8M2 136-240 limits assumed): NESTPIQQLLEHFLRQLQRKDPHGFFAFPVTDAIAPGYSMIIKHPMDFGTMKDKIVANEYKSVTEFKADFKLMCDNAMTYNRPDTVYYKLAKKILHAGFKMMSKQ
Description: as §1, §2, §3, §4, §5, §6, §7

[9] = target: T6, BRPF1B (Homo sapiens, UniProt P55201); experiment: DSF Tm shift assay, BRPF1B; format: binding; conditions: single measurement
T6 construct: Bromodomain DSF Tm assays were performed; made in house
T6 sequence (P55201 628-732 limits assumed): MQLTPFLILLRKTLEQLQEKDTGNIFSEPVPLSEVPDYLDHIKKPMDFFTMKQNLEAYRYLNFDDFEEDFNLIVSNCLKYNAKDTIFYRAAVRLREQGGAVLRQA
Description: as §1, §2, §3, §4, §5, §6, §7

[10] = target: T7, CECR2A (Homo sapiens, UniProt Q9BXF3); experiment: DSF Tm shift assay, CECR2A; format: binding; conditions: single measurement
T7 construct: Bromodomain DSF Tm assays were performed; made in house
Description: as §1, §2, §3, §4, §5, §6, §7

[11] = target: T8, SMARCA2B (Homo sapiens, UniProt P51531); experiment: Isothermal calorimetry (ITC), SMARCA2B; format: binding
T8 construct: made in house
Description: as §1, §2, §3, §4, §5, §6, §7
for the cell. All injections for PB1(5) were performed using an initial injection of 2 μl followed by 30 injections of 8 μl with a duration of 16 sec per injection and a spacing of 240 sec between injection. Injections for SMARCA2B and SMARCA4 were performed using an initial injection of 2 μl followed by 35 injections of 8 μl with a duration of 16 sec per injection and a spacing of 240 sec between injection.The data were analyzed with the MicroCal ORIGIN software package employing a single binding site model. The first data point was excluded from the analysis.
Thermodynamic parameters were calculated (ΔG = ΔH - TΔS = -RTlnKB where ΔG, ΔH and ΔS are the changes in free energy, enthalpy and entropy of binding, respectively).
Fluorescence Recovery After Photobleaching (FRAP)
FRAP studies were performed essentially as described. In brief, U2OS cells were transfected (Fugene HD; Roche) with mammalian over-expression constructs encoding GFP fused to the N-terminus of full length wild-type or mutant SMARCA2 (1). The imaging system consisted of a Zeiss LSM 710 laser-scanning and control system (Zeiss) coupled to an inverted Zeiss Axio Observer.Z1 microscope equipped with a high-numerical-aperture (N. A. 1.3) 40 x oil immersion objective (Zeiss). […] FRAP and GFP fluorescence imaging were both carried out with an argon-ion laser (488 nm) and with a PMT detector set to detect fluorescence between 500-550 nm. […] The image datasets and fluorescence recovery data were exported from ZEN 2009, the microscope control

[12] = target: T9, PCAF (Homo sapiens, UniProt Q92831); experiment: DSF Tm shift assay, PCAF; format: binding; conditions: 10 μM, single measurement
T9 construct: representative bromodomains (PCAF, BRD4(1), CREBBP, TRIM33B) from other subfamilies using DSF; made in house
T9 sequence (Q92831 723-827 limits assumed): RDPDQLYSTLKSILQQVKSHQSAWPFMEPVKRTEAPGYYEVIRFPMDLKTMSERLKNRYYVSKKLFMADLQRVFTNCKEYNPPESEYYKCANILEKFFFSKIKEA
Description: as §1, §2, §3, §4, §5, §6, §7

T7 sequence (Q9BXF3 434-538 limits assumed): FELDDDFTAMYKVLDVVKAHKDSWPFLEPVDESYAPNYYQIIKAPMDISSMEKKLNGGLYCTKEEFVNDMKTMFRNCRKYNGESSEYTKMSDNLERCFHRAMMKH
T8 sequence (P51531 1373-1493 isoform P51531-2 limits assumed): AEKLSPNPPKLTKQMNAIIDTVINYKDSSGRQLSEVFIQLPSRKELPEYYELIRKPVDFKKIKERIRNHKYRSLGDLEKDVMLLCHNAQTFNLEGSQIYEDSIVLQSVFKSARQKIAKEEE
T3 sequence (Q92793 1085-1192 limits assumed): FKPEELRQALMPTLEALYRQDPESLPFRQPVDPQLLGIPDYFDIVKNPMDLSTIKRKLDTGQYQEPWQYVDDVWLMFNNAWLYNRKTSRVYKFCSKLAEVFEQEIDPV
T1 sequence (Q86U86 653-774): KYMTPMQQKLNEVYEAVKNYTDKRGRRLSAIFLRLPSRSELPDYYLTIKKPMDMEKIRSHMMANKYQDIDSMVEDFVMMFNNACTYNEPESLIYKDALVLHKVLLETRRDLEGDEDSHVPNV
SMARCA4, sequence (P51532 1453-1564 limits assumed): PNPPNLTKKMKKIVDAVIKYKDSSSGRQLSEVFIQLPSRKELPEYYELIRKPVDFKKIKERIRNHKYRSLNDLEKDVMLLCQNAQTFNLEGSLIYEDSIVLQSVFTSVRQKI

CCC(/C=C1\CCn2c1nc(=O)c1c(Cl)cccc12)CC [Compound 28]
TΔS [1]: 2.362 kcal/mol and 2.3 kcal/mol
ΔG [1]: -9.110 kcal/mol
K×10^6 (M-1) [2]: 0.49 ×10^6 M-1
TΔS [2]: 6.446 kcal/mol
ΔG [2]: -7.620 kcal/mol
ΔH [2]: -1.174 kcal/mol

CC(C)N(/C=C1\CCn2c1nc(=O)c1ccccc12)C(C)C [Compound 8, (E)-3-((Diisopropylamino)methylene)-2,3-dihydropyrrolo[1,2-a]quinazolin-5(1H)-one]
PB1(5) ΔTm [3]: loss of binding

O=c1nc2n(c3cccc(F)c13)CCC2 [Compound 17c]
ΔTm at 10 µM [3]: -0.1 ± 0.8 °C

O=c1nc2n(c3cccc(Cl)c13)CCC2 [Compound 18c, 6-chloro-2,3-dihydropyrrolo[1,2-a]quinazolin-5(1H)-one]
ΔTm at 10 µM [3]: 2.6 ± 0.3 °C

O=c1nc2n(c3cccc(Cl)c13)CC/C2=C\N1CCCCC1 [Compound 24]
TΔS [1]: 4.043 kcal/mol and 4.0 kcal/mol
ΔG [1]: -9.243 kcal/mol
K × 10^6 (M^–1) [1]: 7.86 × 10^6 M^–1
BRD4(1) Tm [4]: 1.0 °C
CREBBP Tm [5]: 0.0 °C
TRIM33B Tm [6]: -0.1 °C
DMSO and aqueous solubility [7]: greatly improved

CCN1CCN(/C=C2\CCn3c2nc(=O)c2ccccc23)CC1 [Compound 13]
PB1(5) Tm (Supplementary Table 2) [3]: 5.0 ± 0.5 °C
BRD9A Tm [8]: 0.8 °C
BRPF1B Tm [9]: 0.0 °C
CECR2A Tm [10]: 0.1 °C

O=c1nc2n(c3ccccc13)CC/C2=C\N1CCCCC1 [Compound 10, (E)-3-(Piperidin-1-ylmethylene)-2,3-dihydropyrrolo[1,2-a]quinazolin-5(1H)-one]
TΔS [1]: 5.3 kcal/mol and 5.274 kcal/mol
ΔG [1]: -7.926 kcal/mol
K × 10^6 (M^–1) [1]: 0.80 × 10^6 M^–1
BRD9A Tm [8]: 0.2 °C
BRPF1B Tm [9]: 0.0 °C
CECR2A Tm [10]: 0.1 °C

O=c1nc2n(c3ccccc13)CC/C2=C\N1CCCC1 [Compound 9, (E)-3-(Pyrrolidin-1-ylmethylene)-2,3-dihydropyrrolo[1,2-a]quinazolin-5(1H)-one]
PB1(5) Tm (Supplementary Table 2) [3]: 4.3 ± 0.4 °C
TΔS [1]: 4.7 kcal/mol and 4.717 kcal/mol
ΔG [1]: -7.577 kcal/mol
K × 10^6 (M^–1) [1]: 0.44 × 10^6 M^–1
BRD9A Tm [8]: 1.0 °C
BRPF1B Tm [9]: 0.0 °C
CECR2A Tm [10]: 0.2 °C

O=c1nc2n(c3ccccc13)CC/C2=C\N1CCOCC1 [Compound 11]
BRD9A Tm [8]: 0.8 °C
BRPF1B Tm [9]: 0.0 °C
CECR2A Tm [10]: 0.1 °C

CN1CCN(/C=C2\CCn3c2nc(=O)c2ccccc23)CC1 [Compound 12]
PB1(5) Tm (Supplementary Table 2) [3]: 5.8 ± 0.1 °C
BRD9A Tm [8]: 0.5 °C
BRPF1B Tm [9]: 0.2 °C
CECR2A Tm [10]: 0.3 °C

CN1CCN(/C=C2\CCn3c2nc(=O)c2c(Cl)cccc23)CC1 [Compound 26]
ΔG [1]: -9.272 kcal/mol
K × 10^6 (M^–1) [1]: 8.09 × 10^6 M^–1
K×10^6 (M-1) [11]: 3.81 ×10^6 M-1
TΔS [11]: 5.508 kcal/mol
ΔG [11]: -8.810 kcal/mol
ΔH [11]: -3.302 kcal/mol
K×10^6 (M-1) [2]: 2.40 ×10^6 M-1
TΔS [2]: 4.835 kcal/mol
ΔG [2]: -4.838 kcal/mol
ΔH [2]: -3.727 kcal/mol
DMSO and aqueous solubility [7]: greatly improved

CCCN(/C=C1\CCn2c1nc(=O)c1ccccc12)CCC [Compound 7, (E)-3-((Dipropylamino)methylene)-2,3-dihydropyrrolo[1,2-a]quinazolin-5(1H)-one]
PB1(5) ΔTm [3]: moderate activity

CC(C)(C)OC(=O)N1CCN(/C=C2\CCn3c2nc(=O)c2ccccc23)CC1 [Compound 14]
PB1(5) Tm (Supplementary Table 2) [3]: 4.7 ± 0.6 °C
BRD9A Tm [8]: 0.7 °C
BRPF1B Tm [9]: 0.2 °C
CECR2A Tm [10]: 0.1 °C

O=c1nc2n(c3cccc(Br)c13)CCC2 [Compound 19c]
ΔTm at 10 µM [3]: 3.1 ± 0.3 °C

CCN1CCN(/C=C2\CCn3c2nc(=O)c2c(Cl)cccc23)CC1 [Compound 27]
TΔS [1]: 4.7 kcal/mol
ΔG [1]: -9.198 kcal/mol
K × 10^6 (M^–1) [1]: 7.05 × 10^6 M^–1
DMSO and aqueous solubility [7]: greatly improved

O=c1nc2n(c3cccc(Cl)c13)CC/C2=C\N1CCOCC1 [Compound 25]
CREBBP Tm [5]: 0.1 °C
PCAF Tm [12]: 0.8 °C
TRIM33B Tm [6]: 0.9 °C

O=c1nc2n(c3ccccc13)CCC2 [Compound 4, 2,3-Dihydropyrrolo[1,2-a]quinazolin-5(1H)-one]
PB1(5) ΔTm [3]: no interaction
ΔTm at 10 µM [3]: 0 °C

O=c1nc2n(c3cccc(O)c13)CCC2 [Compound 21c]
ΔTm at 10 µM [3]: -0.1 ± 0.4 °C

CN(C)/C=C1\CCn2c1nc(=O)c1c(Cl)cccc12 [Compound 18]
TΔS [1]: 3.018 kcal/mol and 3.0 kcal/mol
ΔG [1]: -9.195 kcal/mol
K × 10^6 (M^–1) [1]: 7.29 × 10^6 M^–1
BRD4(1) Tm [4]: 0.3 °C
CREBBP Tm [5]: 0.0 °C
PCAF Tm [12]: 0.2 °C
TRIM33B Tm [6]: 0.2 °C

CN1CCCN(/C=C2\CCn3c2nc(=O)c2ccccc23)CC1 [Compound 15]
PB1(5) Tm (Supplementary Table 2) [3]: 3.5 ± 0.2 °C
BRD9A Tm [8]: 0.0 °C
BRPF1B Tm [9]: 0.2 °C
CECR2A Tm [10]: 0.0 °C

Cc1cccc2c1c(=O)nc1n2CCC1 [Compound 16c]
ΔTm at 10 µM [3]: 0 °C

O=c1nc2n(c3ccccc13)CC/C2=C\c1ccoc1 [Compound 1]
aqueous solubility [7]: poor

COc1cccc2c1c(=O)nc1n2CCC1 [Compound 20c]
ΔTm at 10 µM [3]: -0.6 ± 0.5 °C
